Source: patent US9029377B2, “Platelet-activating factor receptor antagonists” (Merck Sharp & Dohme Corp., priority 2009, dated 2015)

Each compound was assayed against PAFR (Homo sapiens, UniProt P25105) (assay: PAF Binding Assay (PAFR binding)).
Sequence of PAFR (P25105 whole entry): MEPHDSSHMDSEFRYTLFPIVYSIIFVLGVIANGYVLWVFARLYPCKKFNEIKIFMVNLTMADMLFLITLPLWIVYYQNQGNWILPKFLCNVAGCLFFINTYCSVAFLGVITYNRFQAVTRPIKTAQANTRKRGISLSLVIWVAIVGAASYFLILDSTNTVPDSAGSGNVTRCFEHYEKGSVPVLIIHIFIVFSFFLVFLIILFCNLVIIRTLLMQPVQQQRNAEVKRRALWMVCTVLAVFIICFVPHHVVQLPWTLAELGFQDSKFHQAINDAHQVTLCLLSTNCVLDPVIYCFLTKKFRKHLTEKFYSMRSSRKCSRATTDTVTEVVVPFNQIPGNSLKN

SMILES | IC50 [nM]
O=S(=O)(N[C@H]1CCC[C@@H](n2cnnc2)C1)c1cc(-c2cc(Cl)cn3cc(CCl)nc23)cc(C(F)(F)F)c1 [Compound 3Aav, 3-[6-chloro-2-(chloromethyl)imidazo[1,2-a]pyridin-8-yl]-N-[(1S,3R)-3-(4H-1,2,4-triazol-4-yl)cyclohexyl]-5-(trifluoromethyl)benzenesulfonamide] | 22
O=S(=O)(N[C@H]1CCC[C@@H](n2cnnc2)C1)c1cc(-c2noc(C3CC3)n2)cc(C(F)(F)F)c1 [Compound 3Ah, 3-(5-cyclopropyl-1,2,4-oxadiazol-3-yl)-N-[(1S,3R)-3-(4H-1,2,4-triazol-4-yl)cyclohexyl]-5-(trifluoromethyl)benzenesulfonamide] | 7.8
O=S(=O)(N[C@H]1CCC[C@@H](n2cnnc2)C1)c1cc(-c2ccc(O)nc2)cc(C(F)(F)F)c1 [Compound 3Ai, 3-(6-hydroxypyridin-3-yl)-N-[(1S,3R)-3-(4H-1,2,4-triazol-4-yl)cyclohexyl]-5-(trifluoromethyl)benzenesulfonamide] | 526
O=S(=O)(N[C@H]1CCC[C@@H](n2cnnc2)C1)c1cc(-c2cccnc2O)cc(C(F)(F)F)c1 [Compound 3Aj, 3-(2-hydroxypyridin-3-yl)-N-[(1S,3R)-3-(4H-1,2,4-triazol-4-yl)cyclohexyl]-5-(trifluoromethyl)benzenesulfonamide] | 12
O=S(=O)(N[C@H]1CCC[C@@H](n2cnnc2)C1)c1cc(-c2ccc(C(F)(F)F)cc2)cc(C(F)(F)F)c1 [Compound 3Al, N-[(1S,3R)-3-(4H-1,2,4-triazol-4-yl)cyclohexyl]-4′,5-bis(trifluoromethyl)biphenyl-3-sulfonamide] | 8.1
O=S(=O)(N[C@H]1CCC[C@@H](n2cnnc2)C1)c1cc(-c2ccncc2)cc(C(F)(F)F)c1 [Compound 3An, 3-pyridin-4-yl-N-[(1S,3R)-3-(4H-1,2,4-triazol-4-yl)cyclohexyl]-5-(trifluoromethyl)benzenesulfonamide] | 36
O=S(=O)(N[C@H]1CCC[C@@H](n2cnnc2)C1)c1cc(-c2cccc3ccccc23)cc(C(F)(F)F)c1 [Compound 3Ao, 3-(1-naphthyl)-N-[(1S,3R)-3-(4H-1,2,4-triazol-4-yl)cyclohexyl]-5-(trifluoromethyl)benzenesulfonamide] | 15
O=S(=O)(N[C@H]1CCC[C@@H](n2cnnc2)C1)c1cc(-c2cccc3ccsc23)cc(C(F)(F)F)c1 [Compound 3Aq, 3-(1-benzothien-7-yl)-N-[(1S,3R)-3-(4H-1,2,4-triazol-4-yl)cyclohexyl]-5-(trifluoromethyl)benzenesulfonamide] | 7
O=S(=O)(N[C@H]1CCC[C@@H](n2cnnc2)C1)c1cc(-c2cccnc2)cc(C(F)(F)F)c1 [Compound 3Ar, 3-pyridin-3-yl-N-[(1S,3R)-3-(4H-1,2,4-triazol-4-yl)cyclohexyl]-5-(trifluoromethyl)benzenesulfonamide] | 32
O=S(=O)(N[C@H]1CCC[C@@H](n2cnnc2)C1)c1cc(-c2ccnc(F)c2)cc(C(F)(F)F)c1 [Compound 3Av, 3-(2-fluoropyridin-4-yl)-N-[(1S,3R)-3-(4H-1,2,4-triazol-4-yl)cyclohexyl]-5-(trifluoromethyl)benzenesulfonamide] | 15
Nc1cnc(-c2cc(C(F)(F)F)cc(S(=O)(=O)N[C@H]3CCC[C@@H](n4cnnc4)C3)c2)cn1 [Compound 3Aw, 3-(5-aminopyrazin-2-yl)-N-[(1S,3R)-3-(4H-1,2,4-triazol-4-yl)cyclohexyl]-5-(trifluoromethyl)benzenesulfonamide] | 6.6
O=S(=O)(N[C@H]1CCC[C@@H](n2cnnc2)C1)c1cc(-c2cccc3cnccc23)cc(C(F)(F)F)c1 [Compound 3Az, 3-isoquinolin-5-yl-N-[(1S,3R)-3-(4H-1,2,4-triazol-4-yl)cyclohexyl]-5-(trifluoromethyl)benzenesulfonamide] | 10
CCc1cc(-c2cccnc2OCC(F)(F)F)cc(S(=O)(=O)N[C@H]2CCC[C@@H](n3cnnc3)C2)c1 [Compound 3Bam, 3-ethyl-N-[(1S,3R)-3-(4H-1,2,4-triazol-4-yl)cyclohexyl]-5-[2-(2,2,2-trifluoroethoxy)pyridin-3-yl]benzenesulfonamide] | 9.5
CCc1cc(-c2cnc3ccnn3c2)cc(S(=O)(=O)N[C@H]2CCC[C@@H](n3cnnc3)C2)c1 [Compound 3Bax, 3-ethyl-5-pyrazolo[1,5-a]pyrimidin-6-yl-N-[(1S,3R)-3-(4H-1,2,4-triazol-4-yl)cyclohexyl]benzenesulfonamide] | 22
CCc1cc(-c2ccnnc2)cc(S(=O)(=O)N[C@H]2CCC[C@@H](n3cnnc3)C2)c1 [Compound 3Baz, 3-ethyl-5-pyridazin-4-yl-N-[(1S,3R)-3-(4H-1,2,4-triazol-4-yl)cyclohexyl]benzenesulfonamide] | 208

Stronger by IC50, values ahead:

IC50 [nM] | SMILES
1.4 | O=S(=O)(N[C@H]1CCC[C@@H](n2cnnc2)C1)c1cc(-c2cccn3ccnc23)cc(C(F)(F)F)c1 [Compound 3Aau, 3-imidazo[1,2-a]pyridin-8-yl-N-[(1S,3R)-3-(4H-1,2,4-triazol-4-yl)cyclohexyl]-5-(trifluoromethyl)benzenesulfonamide]
0.5 | CCOC(=O)c1cn2cc(Cl)cc(-c3cc(C(F)(F)F)cc(S(=O)(=O)N[C@H]4CCC[C@@H](n5cnnc5)C4)c3)c2n1 [Compound 3Aaw, ethyl 6-chloro-8-[3-({[(1S,3R)-3-(4H-1,2,4-triazol-4-yl)cyclohexyl]amino}sulfonyl)-5-(trifluoromethyl)phenyl]imidazo[1,2-a]pyridine-2-carboxylate]
4.8 | Cc1nncn1[C@@H]1CCC[C@H](NS(=O)(=O)c2cc(-c3ccc(F)cc3)cc(C(F)(F)F)c2)C1 [Compound 3Ab, 4′-fluoro-N-[(1S,3R)-3-(3-methyl-4H-1,2,4-triazol-4-yl)cyclohexyl]-5-(trifluoromethyl)biphenyl-3-sulfonamide]
6.2 | O=S(=O)(N[C@H]1CCC[C@@H](n2cnnc2)C1)c1cc(-c2ccc(F)cc2)cc(C(F)(F)F)c1 [Compound 3Ac, 4′-fluoro-N-[(1S,3R)-3-(4H-1,2,4-triazol-4-yl)cyclohexyl]-5-(trifluoromethyl)biphenyl-3-sulfonamide]
5.9 | O=S(=O)(N[C@H]1CCC[C@@H](n2cnnc2)C1)c1cc(-c2ccccc2)cc(C(F)(F)F)c1 [Compound 3Ae, N-[(1S,3R)-3-(4H-1,2,4-triazol-4-yl)cyclohexyl]-5-(trifluoromethyl)biphenyl-3-sulfonamide]
4.2 | COc1ccc(-c2cc(C(F)(F)F)cc(S(=O)(=O)N[C@H]3CCC[C@@H](n4cnnc4)C3)c2)cn1 [Compound 3Af, 3-(6-methoxypyridin-3-yl)-N-[(1S,3R)-3-(4H-1,2,4-triazol-4-yl)cyclohexyl]-5-(trifluoromethyl)benzenesulfonamide]
4.5 | COc1ncccc1-c1cc(C(F)(F)F)cc(S(=O)(=O)N[C@H]2CCC[C@@H](n3cnnc3)C2)c1 [Compound 3Ag, 3-(2-methoxypyridin-3-yl)-N-[(1S,3R)-3-(4H-1,2,4-triazol-4-yl)cyclohexyl]-5-(trifluoromethyl)benzenesulfonamide]
4.9 | O=S(=O)(N[C@H]1CCC[C@@H](n2cnnc2)C1)c1cc(-c2ccccc2OC(F)(F)F)cc(C(F)(F)F)c1 [Compound 3Am, N-[(1S,3R)-3-(4H-1,2,4-triazol-4-yl)cyclohexyl]-2′-(trifluoromethoxy)-5-(trifluoromethyl)biphenyl-3-sulfonamide]
3.3 | O=S(=O)(N[C@H]1CCC[C@@H](n2cnnc2)C1)c1cc(-c2ccc3ncccc3c2)cc(C(F)(F)F)c1 [Compound 3Ap, 3-quinolin-6-yl-N-[(1S,3R)-3-(4H-1,2,4-triazol-4-yl)cyclohexyl]-5-(trifluoromethyl)benzenesulfonamide]
3.9 | O=S(=O)(N[C@H]1CCC[C@@H](n2cnnc2)C1)c1cc(-c2cccc(F)c2)cc(C(F)(F)F)c1 [Compound 3As, 3′-fluoro-N-[(1S,3R)-3-(4H-1,2,4-triazol-4-yl)cyclohexyl]-5-(trifluoromethyl)biphenyl-3-sulfonamide]
5.4 | O=S(=O)(N[C@H]1CCC[C@@H](n2cnnc2)C1)c1cc(-c2ccccc2F)cc(C(F)(F)F)c1 [Compound 3At, 2′-fluoro-N-[(1S,3R)-3-(4H-1,2,4-triazol-4-yl)cyclohexyl]-5-(trifluoromethyl)biphenyl-3-sulfonamide]
4.6 | O=S(=O)(N[C@H]1CCC[C@@H](n2cnnc2)C1)c1cc(-c2cccc(F)n2)cc(C(F)(F)F)c1 [Compound 3Ax, 3-(6-fluoropyridin-2-yl)-N-[(1S,3R)-3-(4H-1,2,4-triazol-4-yl)cyclohexyl]-5-(trifluoromethyl)benzenesulfonamide]
5.7 | CCc1cc(-c2ccc(OCC(F)(F)F)nn2)cc(S(=O)(=O)N[C@H]2CCC[C@@H](n3cnnc3)C2)c1 [Compound 3Bay, 3-ethyl-N-[(1S,3R)-3-(4H-1,2,4-triazol-4-yl)cyclohexyl]-5-[6-(2,2,2-trifluoroethoxy)pyridazin-3-yl]benzenesulfonamide]
0.9 | CCc1cc(-c2cccc3cccnc23)cc(S(=O)(=O)N[C@H]2CCC[C@@H](n3cnnc3)C2)c1 [Compound 3Bd, 3-ethyl-5-quinolin-8-yl-N-[(1S,3R)-3-(4H-1,2,4-triazol-4-yl)cyclohexyl]benzenesulfonamide]
0.4 | Cc1nncn1[C@H]1C[C@@H](NS(=O)(=O)c2cc(-c3cccc4cccnc34)cc(C(F)(F)F)c2)CC(F)(F)C1 [Compound 3Ca, N-[(1R,5S)-3,3-difluoro-5-(3-methyl-4H-1,2,4-triazol-4-yl)cyclohexyl]-3-quinolin-8-yl-5-(trifluoromethyl)benzenesulfonamide]
4.8 | O=S(=O)(N[C@@H]1C[C@H](n2cnnc2)CC(F)(F)C1)c1cc(-c2cccc3cccnc23)cc(C(F)(F)F)c1 [Compound 3Cd, N-[(1R,5S)-3,3-difluoro-5-(4H-1,2,4-triazol-4-yl)cyclohexyl]-3-quinolin-8-yl-5-(trifluoromethyl)benzenesulfonamide]
1.8 | CCc1cc(-c2cccc3cccnc23)cc(S(=O)(=O)N[C@@H]2C[C@H](n3cnnc3C)CC(F)(F)C2)c1 [Compound 3Da, N-[(1R,5S)-3,3-difluoro-5-(3-methyl-4H-1,2,4-triazol-4-yl)cyclohexyl]-3-ethyl-5-quinolin-8-ylbenzenesulfonamide]
